{
  "source": "patent US4833152A",
  "about": "“Anti-hypertensive agents” (University of Miami, priority 1987, dated 1989)",
  "origin": "cited, not measured here",
  "key": {"[1]": {"conditions": "1 mg per ml, pH about 8, as little as 30 minutes, ambient conditions"}},
  "data": [
    {"compound": "C[C@H](CS)C(=O)N1CCCC1C(=O)O", "note": "(stereo in doubt) [SQ14225, D-3-mercapto-2-methylpropanoyl-L-proline]", "values": [
      {"measurement": "loss of activity of fresh aqueous solution on standing", "setting": "[1]", "value": "substantially less active upon standing for as little as 30 minutes"},
      {"measurement": "ACE inhibition, in words", "setting": "ACE; U.S. Pat. No. 4,046,889, Cushman 1977, Ondetti 1977", "value": "highly effective inhibitor"}
    ]},
    {"compound": "C[C@H](CSSC[C@@H](C)C(=O)N1CCC[C@H]1C(=O)O)C(=O)N1CCC[C@H]1C(=O)O", "note": "[disulfide]", "values": [
      {"measurement": "inhibitory activity of the disulfide", "setting": "ACE; disulfide formed by dimerization of SQ14225, believed", "value": "largely inactive as an inhibitor"}
    ]},
    {"compound": "CC(=O)SC[C@@H](C)C(=O)N1CCC[C@H]1C(=O)O", "note": "[S-acetyl derivative]", "values": [
      {"measurement": "potency of the inhibitor on substitution of the sulfhydryl", "setting": "ACE; relative to free sulfhydryl SQ14225, Cushman et al., Biochemistry", "value": "substantially reduced potency of the inhibitor"}
    ]}
  ]
}
